Patent publication US12545637B2, “Extrahepatic targeted cationic lipid compound with high efficiency and low toxicity and its composition” (BEIJING YOUCARE KECHUANG PHARMACEUTICAL TECHNOLOGY CO., LTD., priority 2023, dated 2026)

Legend:
[1] = Detection of encapsulation efficiency, drug loading concentration and total RNA concentration (RiboGreen); format: physicochemical; details: LNP formulation prepared from the cationic lipid
Excerpt: Encapsulation efficiency is a key quality attribute of liposomes, which refers to the percentage of drug content encapsulated in the lipid bimolecular layer accounting for the total drug dose and can reflect the degree of drug encapsulation in liposomes. The Chinese Pharmacopoeia stipulates that the encapsulation efficiency should generally not be less than 80%.
The drug loading amount is the ratio of the amount of drug in the liposome to the total amount of drug and carrier in the liposome. The drug loading amount directly affects the clinical application dose of the drug. […] The drug loading concentration is proportional to the drug loading amount, and the relative proportion of the drug loading concentrations can represent the relative proportion of the drug loading amounts. The relative ratio of the total RNA concentrations may represent the relative ratio of the amounts of mRNA carried by the LNP formulations.
1×TE buffer, 0.1% Triton X-100 buffer, RiboGreen reagent (1: 200) and mRNA standard stock solution were prepared.
An appropriate amount of the sample was added to an appropriate amount of 1×TE buffer, and the mixture was diluted to obtain a solution containing approximately […] sample per 1 mL. Then the sample was added to a 96-well plate, and 50 μL of the diluted test sample or the mRNA standard stock solution was added to each well, then 1×TE buffer and 0.1% Triton X-100 buffer were added. The sample was incubated at 37° C. for 10 minutes, and 100 μL RiboGreen reagent (1:200) was added to each well of the test sample in the 96-well plate. The sample was centrifugated, and the data were read using a microplate reader, and processed.

[2] = test system: female BALB/C mice; experiment: In vivo imaging in mice of Fluc-mRNA LNP formulations (mRNA expression and duration); details: Fluc-mRNA LNP intramuscular; for average radiation intensity, 6 h: 6 h after administration; for average radiation intensity, 24 h: 24 h after administration; for average radiation intensity, 48 h: 48 h after administration; for average radiation intensity, 7 d: 7 d after administration
Procedure: (§1) The LNP formulation (prepared according to Example 4) containing […] Fluc-mRNA was injected intramuscularly into female BALB/C mice aged 4-6 weeks and weighed 17-19 g, and the mice were intraperitoneally injected with fluorescent imaging substrate at specific time points after administration (6h, 24 h, 48h and 7d), where the mice were allowed to free move for 5 minutes, and then the average radiation intensity (corresponding to fluorescence expression intensity) of the protein expression of the mRNA carried by the LNP in the mice was detected by the IVIS Spectrum small animal in vivo imaging system.

[3] = test system: 293T cells; experiment: Cell survival rate assay (CCK-8); format: cell-based; details: LNP with 1.5 μg Fluc-mRNA, 24 hours, CCK-8
Procedure: Cell recovery and passage: 293T cells were recovered, cultured in a culture dish, and passaged to the required number of cells.
(§2) Seeding plate: The cells in the culture dish were digested and counted. Cells were spread in a 96-well plate at 10,000 cells per well and in a 12-well plate at 150,000 cells per well. Cells were cultured overnight until the cells adhered to the wall.
An LNP formulation containing 1.5 μg of Fluc-mRNA (prepared according to example 4, the carrier components of the LNP formulation were cationic lipid, neutral lipid, structured lipid and polymer-conjugated lipid at a molar ratio of 49:10:39.5:1.5, wherein the cationic lipid was listed in Table 1) and the formulation of Lipofectamine 3000 were added to the cell culture medium of a 96-well plate, and further cultivated for 24 hours. 10 μL of CCK-8 solution was then added to each well, and the culture plate was incubated in an incubator for 1 hour. The absorbance at 450 nm was measured by a microplate reader.

[4] = test system: 293T cells; experiment: Fluorescent detection of Fluc-mRNA (cell transfection efficiency of LNP formulations); format: cell-based; details: LNP with 0.3 μg Fluc-mRNA, 96-well plate, 24 hours
Procedure: as §2
The corresponding reagents were added according to the instructions of the Gaussia Luciferase Assay Kit, and the fluorescence expression intensity of each well was detected by an IVIS fluorescence detection system.

[5] = Particle size and polydispersity index (PDI) of lipid nanoparticles by dynamic light scattering; format: physicochemical; details: for PDI: LNP formulation of the cationic lipid, 25° C.; for Particle size: LNP formulation of the cationic lipid/DSPC/cholesterol/DMG-PEG2000 49:10:39.5:1.5, 25° C.
Procedure: The particle size and polydispersity index (PDI) were determined by dynamic light scattering using Malvern laser particle size analyzer.
10 μL of the liposome solution was weighed, diluted to 1 mL with RNase-free deionized water, and added to the sample pool. Each sample was measured in triplicate. The measurement conditions were: […] scattering angle, and 25° C.

[6] = test system: female BALB/C mice; experiment: Distribution of liposomes in mice (protein expression in liver, spleen, lung, heart and kidney); format: in vivo; details: mouse, in vivo
Procedure: as §1
Current mRNA vaccines usually express proteins in muscle.

SMILES | Drug loading concentration [1] | Encapsulation efficiency [1] | Total RNA concentration [1] | average radiation intensity, 6 h [2] | average radiation intensity, 24 h [2] | average radiation intensity, 48 h [2] | average radiation intensity, 7 d [2] | Cell survival rate [3] | Relative light unit (RLU) [4] | PDI [5] | Particle size [5] | protein expression in the liver [6] | protein expression in the spleen [6]
CCCCCCCCC(CCCCCC)C(=O)OCCCCCCN(CCCCO)CCCCCCOC(=O)C(CCCCCC)CCCCCCCC (stereo not drawn) [ALC-0315, reference compound] | 26.88 µg/mL | 63.3% | 37.86 µg/mL | 841020 | 189740 | 40125 | 7014 | 47.21% | 2189470 RLU | 18.2% | 205 nm | had protein expression in the liver | 
CCCCCCCCC(CCCCCCCC)OC(=O)CCCCCCCN(CCO)CCCCCCCC(=O)OCCC(CCCCCC)CCCCCC [Compound 21, reference compound] |  |  |  | 600500 | 111040 | 31540 | 6378 | 67.84% | 1511024 RLU |  |  | had protein expression in the liver | 
CCCCCCCCCCCCC(O)CN(C)CCCCCC(=O)OCC(CCCCCC)CCCCCCCC (stereo not drawn) [HHMA, reference compound] | 32.65 µg/mL | 60.2% | 36.44 µg/mL | 661080 | 120010 | 33346 | 5958 | 64.27% | 2078940 RLU | 16.6% | 144 nm | had protein expression in the liver | 
CCCCCCCCCCOC(=O)CCCN(CCO)CCCCCC(=O)OCC(CCCCCCCC)CCCCCCCC [YK-009, reference compound] | 27.52 µg/mL | 63.4% | 38.50 µg/mL | 981240 | 705470 | 100560 | 9555 | 70.43% | 5146376 RLU | 16.0% | 189 nm |  | 
CCCCCCCCCCCOC(=O)CCCN(CCO)CCCN(CCO)CCCCCC(=O)OCC(CCCCCCCC)CCCCCCCC [YK-415, 2-octyldecyl 6-((2-hydroxyethyl)(3-((2-hydroxyethyl)(4-oxo-4-(undecyloxy)butyl)amino)propyl)amino)hexanoate] | 31.08 µg/mL | 87.8% | 35.39 µg/mL | 117840 | 64501 | 15790 | 4041 | 61.16% | 298021 RLU | 15.6% | 178 nm |  | 
CCCCCCCCCCOC(=O)CCCCCN(CCO)CCCN(CCO)CCCCCC(=O)OCCC(CCCCCC)CCCCCC [YK-417] | 25.02 µg/mL | 74.8% | 33.46 µg/mL | 60480 | 19987 | 7045 | 2284 | 21.34% | 117287 RLU | 17.7% | 128 nm |  | 
CCCCCCCCCCOC(=O)CCCN(CCO)CCCN(CCO)CCCCCCOC(=O)CC(CCCCCC)CCCCCC [YK-418, 6-((3-((4-(decyloxy)-4-oxobutyl)(2-hydroxyethyl)amino)propyl)(2-hydroxyethyl)amino)hexyl 3-hexylnonanoate] | 24.96 µg/mL | 75.6% | 33.01 µg/mL |  |  |  |  | 21.05% | 111251 RLU | 17.2% | 149 nm | had no protein expression in the liver | 
CCCCCCCCC(CCCCCCCC)OC(=O)CCCCCN(CCO)CCCN(CCO)CCCCCC(=O)OC(CCCCCCCC)CCCCCCCC [YK-419, di(heptadecan-9-yl) 6,6′-(propane-1,3-diyl-bis((2-hydroxyethyl)azanediyl))dihexanoate] | 30.40 µg/mL | 88.3% | 34.44 µg/mL |  |  |  |  | 38.92% | 3167322 RLU | 11.2% | 169 nm | had no protein expression in the liver | had protein expression in the spleen
CCCCCCCCC(CCCCCCCC)COC(=O)CCCCCN(CCCO)CCCCN(CCCO)CCCCCC(=O)OCC(CCCCCCCC)CCCCCCCC [YK-424, bis(2-octyldecyl) 6,6′-(butane-1,4-diylbis((3-hydroxypropyl)azanediyl))dihexanoate] | 32.84 µg/mL | 92.8% | 35.39 µg/mL |  |  |  |  | 27.93% | 2883414 RLU | 16.1% | 170 nm | had no protein expression in the liver | had protein expression in the spleen
